Measured values reported in patent US12662479B2 (Foghorn Therapeutics Inc., priority 2020, dated 2026).
Counter-ions that a name gives are not always drawn.

Experiments:
[1] = molecular target: T1, HiBit-BRG1 fusion protein (Homo sapiens, UniProt P51532); experiment: HiBiT-BRG1 cell-based degradation assay (Nano-Glo HiBiT Lytic Detection, 24 h); settings: HeLa cells expressing HiBit-BRG1 and LgBit; for DC50: read-out: BRG1 HiBit Degradation IC50; for Dmax: HeLa, top dose 30 μM, read-out: BRG1 HiBit Degradation Maximum measured
T1 construct: expressed in transfected cells
How it was run: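 Degradation is scaled from DMSO-treated cells (0%) to cells given 2 μM of a known BRM/BRG1 degrader (100%). HeLa cells stably carrying HiBiT-BRG1 plus LgBiT (5000/well) were lysed with Nano-Glo HiBiT detection reagent, shaken 10 min at RT, and luminescence read.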

HiBit-BRM fusion protein = molecular target: T2, HiBit-BRM fusion protein (Homo sapiens, UniProt P51531); experiment: HiBiT-BRM cell-based degradation assay (Nano-Glo HiBiT Lytic Detection, 24 h); settings: HeLa cells expressing HiBiT-BRM; for DC50: read-out: BRM HiBit Degradation IC50; for BRM HiBit Degradation Maximum measured: top dose 30 μM
T2 construct: expressed in transfected cells
How it was run: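 Residual HiBiT-BRM in a stable HeLa line was measured by Nano-Glo lytic luminescence after 24 h compound exposure (top final dose 30 μM, 3-fold, 10 points, duplicate). Values are % degradation, scaled between DMSO-treated cells and cells given 2 μM of a known BRM/BRG1 degrader.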

T1 sequence (P51532 whole entry, the tested form may be a part): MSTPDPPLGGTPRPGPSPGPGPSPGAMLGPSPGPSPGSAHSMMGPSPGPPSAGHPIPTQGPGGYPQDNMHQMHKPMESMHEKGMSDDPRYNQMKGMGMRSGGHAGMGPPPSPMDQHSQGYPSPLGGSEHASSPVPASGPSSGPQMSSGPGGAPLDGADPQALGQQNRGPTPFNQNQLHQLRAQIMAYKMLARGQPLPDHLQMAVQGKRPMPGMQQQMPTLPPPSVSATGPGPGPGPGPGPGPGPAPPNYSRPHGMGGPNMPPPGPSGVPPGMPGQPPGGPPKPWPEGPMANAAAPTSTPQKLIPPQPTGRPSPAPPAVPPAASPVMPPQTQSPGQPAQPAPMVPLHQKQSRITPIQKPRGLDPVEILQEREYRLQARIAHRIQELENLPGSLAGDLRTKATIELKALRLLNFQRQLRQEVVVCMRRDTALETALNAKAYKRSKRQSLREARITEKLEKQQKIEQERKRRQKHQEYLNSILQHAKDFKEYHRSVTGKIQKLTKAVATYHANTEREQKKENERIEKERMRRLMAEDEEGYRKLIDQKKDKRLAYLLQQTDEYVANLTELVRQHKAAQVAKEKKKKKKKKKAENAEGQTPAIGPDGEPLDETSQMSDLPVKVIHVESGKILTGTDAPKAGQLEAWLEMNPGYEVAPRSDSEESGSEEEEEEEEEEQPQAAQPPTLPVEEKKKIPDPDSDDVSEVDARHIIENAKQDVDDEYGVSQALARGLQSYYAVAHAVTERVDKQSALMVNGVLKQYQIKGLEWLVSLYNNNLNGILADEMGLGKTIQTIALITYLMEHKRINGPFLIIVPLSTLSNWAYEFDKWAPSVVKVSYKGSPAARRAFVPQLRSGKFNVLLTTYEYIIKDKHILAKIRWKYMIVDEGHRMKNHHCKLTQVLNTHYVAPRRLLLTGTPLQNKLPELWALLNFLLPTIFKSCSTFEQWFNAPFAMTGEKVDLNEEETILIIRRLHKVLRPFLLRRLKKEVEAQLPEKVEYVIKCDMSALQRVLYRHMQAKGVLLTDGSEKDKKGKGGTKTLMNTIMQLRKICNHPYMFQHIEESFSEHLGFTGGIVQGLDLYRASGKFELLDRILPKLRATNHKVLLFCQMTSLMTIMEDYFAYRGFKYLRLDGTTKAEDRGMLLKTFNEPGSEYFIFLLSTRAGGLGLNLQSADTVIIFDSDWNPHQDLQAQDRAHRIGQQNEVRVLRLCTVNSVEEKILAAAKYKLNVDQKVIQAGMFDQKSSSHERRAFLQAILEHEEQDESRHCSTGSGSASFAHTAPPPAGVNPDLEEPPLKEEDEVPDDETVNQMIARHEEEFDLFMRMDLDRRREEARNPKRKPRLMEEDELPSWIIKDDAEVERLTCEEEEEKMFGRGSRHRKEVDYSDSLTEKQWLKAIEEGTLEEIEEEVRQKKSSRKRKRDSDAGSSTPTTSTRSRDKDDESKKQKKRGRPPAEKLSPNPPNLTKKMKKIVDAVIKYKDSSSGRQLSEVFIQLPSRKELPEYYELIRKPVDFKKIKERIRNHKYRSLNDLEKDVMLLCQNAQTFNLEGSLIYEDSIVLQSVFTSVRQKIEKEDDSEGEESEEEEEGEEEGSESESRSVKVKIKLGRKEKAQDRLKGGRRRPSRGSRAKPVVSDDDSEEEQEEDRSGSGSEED
T2 sequence (P51531 whole entry, the tested form may be a part): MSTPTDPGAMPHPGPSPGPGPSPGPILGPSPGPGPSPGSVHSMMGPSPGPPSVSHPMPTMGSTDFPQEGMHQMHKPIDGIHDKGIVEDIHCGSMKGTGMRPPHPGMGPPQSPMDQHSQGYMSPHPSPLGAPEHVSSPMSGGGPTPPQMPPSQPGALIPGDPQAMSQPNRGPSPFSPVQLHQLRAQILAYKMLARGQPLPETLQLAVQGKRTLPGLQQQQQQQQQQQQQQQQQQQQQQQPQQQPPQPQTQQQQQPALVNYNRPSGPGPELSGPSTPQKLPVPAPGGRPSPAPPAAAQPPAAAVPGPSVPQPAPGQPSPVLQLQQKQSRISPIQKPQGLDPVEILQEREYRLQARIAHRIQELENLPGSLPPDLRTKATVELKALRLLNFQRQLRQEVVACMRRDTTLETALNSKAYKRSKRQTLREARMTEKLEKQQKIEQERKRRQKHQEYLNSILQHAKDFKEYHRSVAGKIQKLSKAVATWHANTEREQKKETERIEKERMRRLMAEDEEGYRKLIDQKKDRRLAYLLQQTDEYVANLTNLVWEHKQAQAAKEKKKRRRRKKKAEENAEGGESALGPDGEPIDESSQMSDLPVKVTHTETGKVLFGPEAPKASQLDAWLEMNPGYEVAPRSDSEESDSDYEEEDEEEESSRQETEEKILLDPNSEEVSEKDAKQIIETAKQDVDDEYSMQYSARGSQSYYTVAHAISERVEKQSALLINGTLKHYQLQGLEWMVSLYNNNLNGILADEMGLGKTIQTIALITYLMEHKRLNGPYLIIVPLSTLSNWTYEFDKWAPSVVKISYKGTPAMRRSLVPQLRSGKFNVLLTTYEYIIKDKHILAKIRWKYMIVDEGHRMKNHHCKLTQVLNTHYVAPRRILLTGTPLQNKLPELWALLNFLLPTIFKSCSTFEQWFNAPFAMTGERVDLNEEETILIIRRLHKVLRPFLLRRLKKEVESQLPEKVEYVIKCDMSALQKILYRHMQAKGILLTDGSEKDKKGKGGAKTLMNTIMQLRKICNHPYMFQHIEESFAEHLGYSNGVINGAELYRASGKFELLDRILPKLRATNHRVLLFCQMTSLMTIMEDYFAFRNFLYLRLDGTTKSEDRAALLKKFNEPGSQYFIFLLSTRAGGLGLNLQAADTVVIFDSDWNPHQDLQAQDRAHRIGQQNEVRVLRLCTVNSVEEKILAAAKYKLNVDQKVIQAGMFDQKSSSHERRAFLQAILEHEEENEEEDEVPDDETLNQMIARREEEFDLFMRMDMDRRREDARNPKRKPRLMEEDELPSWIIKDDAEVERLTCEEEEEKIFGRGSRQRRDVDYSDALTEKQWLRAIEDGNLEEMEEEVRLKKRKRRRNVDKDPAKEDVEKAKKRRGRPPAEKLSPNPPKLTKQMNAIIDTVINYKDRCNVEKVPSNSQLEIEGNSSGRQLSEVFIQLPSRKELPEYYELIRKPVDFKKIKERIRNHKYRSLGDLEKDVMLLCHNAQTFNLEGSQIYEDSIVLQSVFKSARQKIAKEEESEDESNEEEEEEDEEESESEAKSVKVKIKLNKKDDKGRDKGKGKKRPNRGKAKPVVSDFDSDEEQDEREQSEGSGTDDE

SMILES | DC50 [1] [µM] | Dmax [1] [%] | DC50 (HiBit-BRM fusion protein) [µM] | BRM HiBit Degradation Maximum measured (HiBit-BRM fusion protein)
CS(=O)(=O)n1ccc(C(=O)N[C@@H](COCc2ccc(C(=O)N3CCN(CCCOc4ccc5c(c4)C(=O)N(C4CCC(=O)NC4=O)C5=O)CC3)cc2)C(=O)Nc2nc(-c3ccccc3)cs2)c1 (stereo partly drawn) [Compound 235, (2S)-3-([4-[4-(3-[[2-(2,6-dioxopiperidin-3-yl)-1,3-dioxoisoindol-5-yl]oxy]propyl)piperazine-1-carbonyl]phenyl]methoxy)-2-[(1-methanesulfonylpyrrol-3-yl)formamido]-N-(4-phenyl-1,3-thiazol-2-yl)propanamide] | > 10 | < 50 | > 10 | C (‘C’ = Maximum degradation <50%)
CS(=O)(=O)n1ccc(C(=O)N[C@@H](COCc2ccc(C(=O)N3CC(CCOc4cccc5c4C(=O)N(C4CCC(=O)NC4=O)C5=O)C3)cc2)C(=O)Nc2nc(-c3ccccc3)cs2)c1 (stereo partly drawn) [Compound 238, (2S)-3-([4-[3-(2-[[2-(2,6-dioxopiperidin-3-yl)-1,3-dioxoisoindol-4-yl]oxy]ethyl)azetidine-1-carbonyl]phenyl]methoxy)-2-[(1-methanesulfonylpyrrol-3-yl)formamido]-N-(4-phenyl-1,3-thiazol-2-yl)propanamide] | > 10 | < 50 | > 10 | C (‘C’ = Maximum degradation <50%)
CS(=O)(=O)n1ccc(C(=O)N[C@@H](CCOCCCC(=O)N2CCC(CN3CCN(c4ccc5c(c4)C(=O)N(C4CCC(=O)NC4=O)C5=O)CC3)CC2)C(=O)Nc2nc(-c3ccccc3)cs2)c1 (stereo partly drawn) [Compound 220, N-((2S)-4-(4-(4-((4-(2-(2,6-dioxopiperidin-3-yl)-1,3-dioxoisoindolin-5-yl)piperazin-1-yl)methyl)piperidin-1-yl)-4-oxobutoxy)-1-oxo-1-((4-phenylthiazol-2-yl)amino)butan-2-yl)-1-(methylsulfonyl)-1H-pyrrole-3-carboxamide formate] | > 10 | < 50 | > 10 | C (‘C’ = Maximum degradation <50%)
CS(=O)(=O)n1ccc(C(=O)NCC(=O)Nc2nc(-c3cccc(-c4ccnc(N5CCN(C(=O)C6CC6CNC(=O)COc6ccc7c(c6)C(=O)N(C6CCC(=O)NC6=O)C7=O)CC5)c4)c3)cs2)c1 (centres unmarked) [Compound 39, N-[2-[[4-[3-[2-[4-[2-[[[2-[2-(2,6-dioxo-3-piperidyl)-1,3-dioxo-isoindolin-5-yl]oxyacetyl]amino]methyl]cyclopropanecarbonyl]piperazin-1-yl]-4-pyridyl]phenyl]thiazol-2-yl]amino]-2-oxo-ethyl]-1-methylsulfonyl-pyrrole-3-carboxamide] | > 10 | < 50 | > 10 | C (‘C’ = Maximum degradation <50%)
Cc1ncsc1-c1ccc(CNC(=O)[C@@H]2C[C@@H](O)CN2C(=O)[C@@H](NC(=O)CCCCC(=O)NCc2cccc(-c3cccc(-c4csc(NC(=O)CNC(=O)c5ccn(S(C)(=O)=O)c5)n4)c3)c2)C(C)(C)C)cc1 [Compound 48, N1-((S)-1-((2S,4R)-4-hydroxy-2-((4-(4-methylthiazol-5-yl)benzyl)carbamoyl)pyrrolidin-1-yl)-3,3-dimethyl-1-oxobutan-2-yl)-N6-((3′-(2-(2-(1-(methylsulfonyl)-1H-pyrrole-3-carboxamido)acetamido)thiazol-4-yl)-[1,1′-biphenyl]-3-yl)methyl)adipamide] | 1 to 10 | 50 to 75 | > 10 | C (‘C’ = Maximum degradation <50%)
CS(=O)(=O)n1ccc(C(=O)NCC(=O)Nc2nc(-c3cccc(-c4cccc(CNC(=O)CCCCCCCCCCNc5ccc6c(c5)C(=O)N(C5CCC(=O)NC5=O)C6=O)c4)c3)cs2)c1 (centres unmarked) [Compound 52] | 0.1 to 1 | 50 to 75 | > 10 | C (‘C’ = Maximum degradation <50%)
CS(=O)(=O)n1ccc(C(=O)NCC(=O)Nc2nc(-c3cccc(-c4cccc(CNC(=O)CCCCCCOc5cccc6c5C(=O)N(C5CCC(=O)NC5=O)C6=O)c4)c3)cs2)c1 (centres unmarked) [Compound 43, N-(2-((4-(3′-((7-((2-(2,6-dioxopiperidin-3-yl)-1,3-dioxoisoindolin-4-yl)oxy)heptanamido)methyl)-[1,1′-biphenyl]-3-yl)thiazol-2-yl)amino)-2-oxoethyl)-1-(methylsulfonyl)-1H-pyrrole-3-carboxamide] | 0.1 to 1 | 50 to 75 | > 10 | C (‘C’ = Maximum degradation <50%)
Cc1ncsc1-c1ccc(CNC(=O)[C@@H]2C[C@@H](O)CN2C(=O)[C@@H](NC(=O)CCCCCCC(=O)NCc2ccc(COC[C@H](NC(=O)c3ccn(S(C)(=O)=O)c3)C(=O)Nc3nc(-c4ccccc4)cs3)cc2)C(C)(C)C)cc1 [Compound 210, N-[(2S)-1-[(2S,4R)-4-hydroxy-2-([[4-(4-methyl-1,3-thiazol-5-yl)phenyl]methyl]carbamoyl)pyrrolidin-1-yl]-3,3-dimethyl-1-oxobutan-2-yl]-N′-[(4-[[(2S)-2-[(1-methanesulfonylpyrrol-3-yl)formamido]-2-[(4-phenyl-1,3-thiazol-2-yl)carbamoyl]ethoxy]methyl]phenyl)methyl]octanediamide] | > 10 | < 50 | > 10 | C (‘C’ = Maximum degradation <50%)
CC(C)(C)n1ccc(C(=O)N[C@@H](COCc2ccc(C(=O)NC3CCN(CCOc4ccc5c(c4)C(=O)N(C4CCC(=O)NC4=O)C5=O)CC3)cc2)C(=O)Nc2nc(-c3ccccc3)cs2)c1 (stereo partly drawn) [Compound 170, 4-[[(2S)-2-[(1-tert-butylpyrrol-3-yl)formamido]-2-[(4-phenyl-1,3-thiazol-2-yl)carbamoyl]ethoxy]methyl]-N-[1-(2-[[2-(2,6-dioxopiperidin-3-yl)-1,3-dioxoisoindol-5-yl]oxy]ethyl)piperidin-4-yl]benzamide] | 0.1 to 1 | > 75 | 0.1 to 1 | A (‘A’ = Maximum degradation >75%)
CS(=O)(=O)n1ccc(C(=O)N[C@@H](CCOCCCC(=O)NCCCCCCNc2ccc3c(c2)C(=O)N(C2CCC(=O)NC2=O)C3=O)C(=O)Nc2nc(-c3ccccc3)cs2)c1 (stereo partly drawn) [Compound 283, (2S)-4-[3-[(6-[[2-(2,6-dioxopiperidin-3-yl)-1,3-dioxoisoindol-5-yl]amino]hexyl)carbamoyl]propoxy]-2-[(1-methanesulfonylpyrrol-3-yl)formamido]-N-(4-phenyl-1,3-thiazol-2-yl)butanamide] | > 10 | < 50 | > 10 | C (‘C’ = Maximum degradation <50%)
CS(=O)(=O)n1ccc(C(=O)N[C@@H](CCOCCCC(=O)NCCCCCCCCNc2cccc3c2C(=O)N(C2CCC(=O)NC2=O)C3=O)C(=O)Nc2nc(-c3ccccc3)cs2)c1 (stereo partly drawn) [Compound 281, (2S)-4-[3-[(8-[[2-(2,6-dioxopiperidin-3-yl)-1,3-dioxoisoindol-4-yl]amino]octyl)carbamoyl]propoxy]-2-[(1-methanesulfonylpyrrol-3-yl)formamido]-N-(4-phenyl-1,3-thiazol-2-yl)butanamide] | > 10 | < 50 | > 10 | C (‘C’ = Maximum degradation <50%)
CS(=O)(=O)n1ccc(C(=O)N[C@@H](CCCCNC(=O)CCCCOc2cccc3c2C(=O)N(C2CCC(=O)NC2=O)C3=O)C(=O)Nc2nc(-c3ccccc3)cs2)c1 (stereo partly drawn) [Compound 295, (2S)-6-(5-[[2-(2,6-dioxopiperidin-3-yl)-1,3-dioxoisoindol-4-yl]oxy]pentanemido)-2-[(1-methanesulfonylpyrrol-3-yl)formamido]-N-(4-phenyl-1,3-thiazol-2-yl)hexanamide] | > 10 | < 50 | > 10 | C (‘C’ = Maximum degradation <50%)
Cc1ncsc1-c1ccc(CNC(=O)[C@@H]2C[C@@H](O)CN2C(=O)[C@@H](NC(=O)CCCCCCC(=O)N(C)Cc2cc(-c3cccc(-c4csc(NC(=O)CNC(=O)c5ccn(S(C)(=O)=O)c5)n4)c3)ccn2)C(C)(C)C)cc1 [Compound 153, N-[(2S)-1-[(2S,4R)-4-hydroxy-2-([[4-(4-methyl-1,3-thiazol-5-yl)phenyl]methyl]carbamoyl)pyrrolidin-1-yl]-3,3-dimethyl-1-oxobutan-2-yl]-N′-([4-[3-(2-[2-[(1-methanesulfonylpyrrol-3-yl)formamido]acetamido]-1,3-thiazol-4-yl)phenyl]pyridin-2-yl]methyl)-N′-methyloctanediamide] | 0.1 to 1 | > 75 | 0.1 to 1 | B (‘B’ = Maximum degradation ≥50% and ≤75%)
Cc1ncsc1-c1ccc(CNC(=O)[C@@H]2C[C@@H](O)CN2C(=O)[C@@H](NC(=O)COCCOCCOCCNC(=O)c2ccc(COC[C@H](NC(=O)c3ccn(S(C)(=O)=O)c3)C(=O)Nc3nc(-c4ccccc4)cs3)cc2)C(C)(C)C)cc1 [Compound 189, (2S,4R)-4-hydroxy-1-[(2S)-2-[2-[2-(2-[2-[(4-[[(2S)-2-[(1-methanesulfonylpyrrol-3-yl)formamido]-2-[(4-phenyl-1,3-thiazol-2-yl)carbamoyl]ethoxy]methyl]phenyl)formamido]ethoxy]ethoxy)ethoxy]acetamido]-3,3-dimethylbutanoyl]-N-[[4-(4-methyl-1,3-thiazol-5-yl)phenyl]methyl]pyrrolidine-2-carboxamide] | > 10 | < 50 | > 10 | C (‘C’ = Maximum degradation <50%)
